{"source": "PubChem BioAssay (NCI)", "assay_in_all_cases": "growth of human tumour cells (NCI), 48 h", "key": {"CAKI-1 renal": {"test_system": "CAKI-1 renal"}, "DU-145 prostate": {"test_system": "DU-145 prostate"}, "SNB-75 CNS": {"test_system": "SNB-75 CNS"}, "A549 NSCLC": {"test_system": "A549 NSCLC"}, "LOX IMVI melanoma": {"test_system": "LOX IMVI melanoma"}, "IGROV1 ovarian": {"test_system": "IGROV1 ovarian"}, "MCF7 breast": {"test_system": "MCF7 breast"}, "OVCAR-5 ovarian": {"test_system": "OVCAR-5 ovarian"}, "RPMI-8226 leukemia": {"test_system": "RPMI-8226 leukemia"}, "HCT-15 colon": {"test_system": "HCT-15 colon"}, "MALME-3M melanoma": {"test_system": "MALME-3M melanoma"}, "HT29 colon": {"test_system": "HT29 colon"}, "SK-MEL-28 melanoma": {"test_system": "SK-MEL-28 melanoma"}, "HOP-92 NSCLC": {"test_system": "HOP-92 NSCLC"}, "SF-539 CNS": {"test_system": "SF-539 CNS"}, "EKVX NSCLC": {"test_system": "EKVX NSCLC"}, "OVCAR-8 ovarian": {"test_system": "OVCAR-8 ovarian"}, "TK-10 renal": {"test_system": "TK-10 renal"}, "UACC-62 melanoma": {"test_system": "UACC-62 melanoma"}, "CCRF-CEM leukemia": {"test_system": "CCRF-CEM leukemia"}, "MDA-MB-435": {"test_system": "MDA-MB-435"}, "HCC-2998 colon": {"test_system": "HCC-2998 colon"}, "SN12C renal": {"test_system": "SN12C renal"}, "SW-620 colon": {"test_system": "SW-620 colon"}, "K-562 leukemia": {"test_system": "K-562 leukemia"}, "MOLT-4 leukemia": {"test_system": "MOLT-4 leukemia"}, "HCT-116 colon": {"test_system": "HCT-116 colon"}, "PC-3 prostate": {"test_system": "PC-3 prostate"}, "M14 melanoma": {"test_system": "M14 melanoma"}, "OVCAR-4 ovarian": {"test_system": "OVCAR-4 ovarian"}, "ACHN renal": {"test_system": "ACHN renal"}, "NCI-H522 lung": {"test_system": "NCI-H522 lung"}, "HOP-62 NSCLC": {"test_system": "HOP-62 NSCLC"}, "SF-268 CNS": {"test_system": "SF-268 CNS"}, "MDA-N": {"test_system": "MDA-N"}, "HS 578T breast": {"test_system": "HS 578T breast"}, "SK-OV-3 ovarian": {"test_system": "SK-OV-3 ovarian"}, "T-47D breast": {"test_system": "T-47D breast"}, "HL-60(TB) leukemia": {"test_system": "HL-60(TB) leukemia"}, "NCI-H226 lung": {"test_system": "NCI-H226 lung"}, "SK-MEL-5 melanoma": {"test_system": "SK-MEL-5 melanoma"}, "SK-MEL-2 melanoma": {"test_system": "SK-MEL-2 melanoma"}, "OVCAR-3 ovarian": {"test_system": "OVCAR-3 ovarian"}, "SNB-19 CNS": {"test_system": "SNB-19 CNS"}, "UACC-257 melanoma": {"test_system": "UACC-257 melanoma"}, "SR leukemia": {"test_system": "SR leukemia"}, "NCI/ADR-RES ovarian": {"test_system": "NCI/ADR-RES ovarian"}, "UO-31 renal": {"test_system": "UO-31 renal"}, "RXF 393 renal": {"test_system": "RXF 393 renal"}, "SF-295 CNS": {"test_system": "SF-295 CNS"}, "COLO 205 colon": {"test_system": "COLO 205 colon"}, "MDA-MB-231 breast": {"test_system": "MDA-MB-231 breast"}, "A498 renal": {"test_system": "A498 renal"}, "BT-549 breast": {"test_system": "BT-549 breast"}, "786-0 renal": {"test_system": "786-0 renal"}, "NCI-H460 lung": {"test_system": "NCI-H460 lung"}, "KM12 colon": {"test_system": "KM12 colon"}, "U251 CNS": {"test_system": "U251 CNS"}, "NCI-H23 lung": {"test_system": "NCI-H23 lung"}}, "note": "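96-well plates; 48 h exposure; 5 concentrations. Endpoints by linear interpolation between flanking doses. Not reached: highest tested concentration assigned. TGI: concentration producing complete growth inhibition.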"}
{"smiles": "CCOC(=O)/C(C#N)=C(/NNc1ccccc1)c1ccncc1C(=O)O", "values": [{"measurement": "TGI", "setting": "CAKI-1 renal", "value": "> 100", "unit": "µM"}, {"measurement": "TGI", "setting": "DU-145 prostate", "value": "> 100", "unit": "µM"}, {"measurement": "TGI", "setting": "SNB-75 CNS", "value": "> 100", "unit": "µM"}, {"measurement": "TGI", "setting": "A549 NSCLC", "value": "> 100", "unit": "µM"}, {"measurement": "TGI", "setting": "LOX IMVI melanoma", "value": "> 100", "unit": "µM"}, {"measurement": "TGI", "setting": "IGROV1 ovarian", "value": "> 100", "unit": "µM"}, {"measurement": "TGI", "setting": "MCF7 breast", "value": "> 100", "unit": "µM"}, {"measurement": "TGI", "setting": "OVCAR-5 ovarian", "value": "> 100", "unit": "µM"}, {"measurement": "TGI", "setting": "RPMI-8226 leukemia", "value": "> 100", "unit": "µM"}, {"measurement": "TGI", "setting": "HCT-15 colon", "value": "> 100", "unit": "µM"}, {"measurement": "TGI", "setting": "MALME-3M melanoma", "value": "> 100", "unit": "µM"}, {"measurement": "TGI", "setting": "HT29 colon", "value": "> 100", "unit": "µM"}, {"measurement": "TGI", "setting": "SK-MEL-28 melanoma", "value": "> 100", "unit": "µM"}, {"measurement": "TGI", "setting": "HOP-92 NSCLC", "value": "> 100", "unit": "µM"}, {"measurement": "TGI", "setting": "SF-539 CNS", "value": "> 88.3", "unit": "µM"}, {"measurement": "TGI", "setting": "EKVX NSCLC", "value": "> 100", "unit": "µM"}, {"measurement": "TGI", "setting": "OVCAR-8 ovarian", "value": "> 100", "unit": "µM"}, {"measurement": "TGI", "setting": "TK-10 renal", "value": "> 100", "unit": "µM"}, {"measurement": "TGI", "setting": "UACC-62 melanoma", "value": "> 100", "unit": "µM"}, {"measurement": "TGI", "setting": "CCRF-CEM leukemia", "value": "> 100", "unit": "µM"}, {"measurement": "TGI", "setting": "MDA-MB-435", "value": "> 100", "unit": "µM"}, {"measurement": "TGI", "setting": "HCC-2998 colon", "value": "> 95.6", "unit": "µM"}, {"measurement": "TGI", "setting": "SN12C renal", "value": "> 100", "unit": "µM"}, {"measurement": "TGI", "setting": "SW-620 colon", "value": "> 100", "unit": "µM"}, {"measurement": "TGI", "setting": "K-562 leukemia", "value": "> 100", "unit": "µM"}, {"measurement": "TGI", "setting": "MOLT-4 leukemia", "value": "> 100", "unit": "µM"}, {"measurement": "TGI", "setting": "HCT-116 colon", "value": "> 100", "unit": "µM"}, {"measurement": "TGI", "setting": "PC-3 prostate", "value": "> 100", "unit": "µM"}, {"measurement": "TGI", "setting": "M14 melanoma", "value": "> 100", "unit": "µM"}, {"measurement": "TGI", "setting": "OVCAR-4 ovarian", "value": "> 100", "unit": "µM"}, {"measurement": "TGI", "setting": "ACHN renal", "value": "> 100", "unit": "µM"}, {"measurement": "TGI", "setting": "NCI-H522 lung", "value": "> 100", "unit": "µM"}, {"measurement": "TGI", "setting": "HOP-62 NSCLC", "value": "> 100", "unit": "µM"}, {"measurement": "TGI", "setting": "SF-268 CNS", "value": "> 100", "unit": "µM"}, {"measurement": "TGI", "setting": "MDA-N", "value": "> 100", "unit": "µM"}, {"measurement": "TGI", "setting": "HS 578T breast", "value": "> 100", "unit": "µM"}, {"measurement": "TGI", "setting": "SK-OV-3 ovarian", "value": "> 100", "unit": "µM"}, {"measurement": "TGI", "setting": "T-47D breast", "value": "> 100", "unit": "µM"}, {"measurement": "TGI", "setting": "HL-60(TB) leukemia", "value": "> 100", "unit": "µM"}, {"measurement": "TGI", "setting": "NCI-H226 lung", "value": "> 100", "unit": "µM"}, {"measurement": "TGI", "setting": "SK-MEL-5 melanoma", "value": "> 48.9", "unit": "µM"}, {"measurement": "TGI", "setting": "SK-MEL-2 melanoma", "value": "> 100", "unit": "µM"}, {"measurement": "TGI", "setting": "OVCAR-3 ovarian", "value": "> 100", "unit": "µM"}, {"measurement": "TGI", "setting": "SNB-19 CNS", "value": "> 100", "unit": "µM"}, {"measurement": "TGI", "setting": "UACC-257 melanoma", "value": "> 100", "unit": "µM"}, {"measurement": "TGI", "setting": "SR leukemia", "value": "> 100", "unit": "µM"}, {"measurement": "TGI", "setting": "NCI/ADR-RES ovarian", "value": "> 100", "unit": "µM"}, {"measurement": "TGI", "setting": "UO-31 renal", "value": "> 100", "unit": "µM"}, {"measurement": "TGI", "setting": "RXF 393 renal", "value": "> 100", "unit": "µM"}, {"measurement": "TGI", "setting": "SF-295 CNS", "value": "> 100", "unit": "µM"}, {"measurement": "TGI", "setting": "COLO 205 colon", "value": 22.5, "unit": "µM"}, {"measurement": "TGI", "setting": "MDA-MB-231 breast", "value": "> 100", "unit": "µM"}, {"measurement": "TGI", "setting": "A498 renal", "value": "> 100", "unit": "µM"}, {"measurement": "TGI", "setting": "BT-549 breast", "value": "> 100", "unit": "µM"}, {"measurement": "TGI", "setting": "786-0 renal", "value": "> 100", "unit": "µM"}, {"measurement": "TGI", "setting": "NCI-H460 lung", "value": "> 100", "unit": "µM"}, {"measurement": "TGI", "setting": "KM12 colon", "value": "> 100", "unit": "µM"}, {"measurement": "TGI", "setting": "U251 CNS", "value": "> 100", "unit": "µM"}, {"measurement": "TGI", "setting": "NCI-H23 lung", "value": "> 100", "unit": "µM"}]}
